# Data reported in ChEMBL document CHEMBL6114941, “Recent progress on small molecule TLR4 antagonist against triple-negative breast cancer progression and complications” (2024).
# How the values were obtained:
# Format in all cases: functional
# [1] = system: Ehrlich; test: Antitumor activity against mouse Ehrlich cells implanted in BALB/c nude mouse assessed as increase in apoptotic cell death at 5 mg/kg, ip administered once daily for 7 days relative to control; conditions: time 7 day
# [2] = system: MDA-MB-435; test: Antiproliferative activity against human MDA-MB-435 cells assessed as inhibition of cell growth at 10 uM in presence of paclitaxel relative to control
# [3] = system: MDA-MB-435; test: Antiproliferative activity against human MDA-MB-435 cells assessed as inhibition of cell growth at 1 nM relative to control
compound,measurement,setting,value
COc1cc(/C=C/C(=O)/C=C/c2ccc(O)c(OC)c2)ccc1[O-].[Na+],Activity,[1],30%
CCc1ccc(/C=C/C(=O)/C=C(O)/C=C/c2ccc(OC)c(O)c2OC)c(CC)c1O,inhibition at 10 µM,[2],45%
CC(=O)O[C@H]1C(=O)[C@@]2(C)[C@H]([C@H](OC(=O)c3ccccc3)[C@]3(O)C[C@H](OC(=O)[C@H](O)[C@@H](NC(=O)c4ccccc4)c4ccccc4)C(C)=C1C3(C)C)[C@]1(OC(C)=O)CO[C@@H]1C[C@@H]2O [PACLITAXEL],inhibition at 0.001 µM,[3],97%
